In publication PMC9283524 (Nature Communications, 2022):
Values joined by “and” are separate entries in the source; they are usually repeats but may differ in a detail not shown here. Equal entries are not always repeated. Where two headings read alike, the source gives them in different places.

Legend:
Assay type in all cases: cell-based
turkey β1-AR E233^5.64A = turkey β1-AR E233^5.64A (Meleagris gallopavo, UniProt P07700, E233A)
Description: (§1) CHO cells (transfected with a control empty vector or wild-type or mutant turkey β1-AR) were plated onto six-well plates, and were pre-incubated with culture medium buffered with 0.5 mM IBMX for 30 min at 37 °C[20]. […] After culture medium removal, cells were treated with 0.1 M HCl for 10 minutes at room temperature. After centrifugation, the supernatant was used for cAMP quantification using the Direct Cyclic AMP Enzyme Immunoassay kit (Enzo Life Sciences). […] The cAMP assays were repeated three times, and the data are represented as mean ± SD of the three independent experiments. The analysis was done using the log(agonist) vs. response function of Prism 8 (GraphPad)[20].

turkey β1-AR F147^ICL2A = turkey β1-AR F147^ICL2A (Meleagris gallopavo, UniProt P07700, F147A)
Description: as §1

turkey β1-AR P146^ICL2A = turkey β1-AR P146^ICL2A (Meleagris gallopavo, UniProt P07700, P146A)
Description: as §1

turkey β1-AR Q150^ICL2A = turkey β1-AR Q150^ICL2A (Meleagris gallopavo, UniProt P07700, Q150A); details: for cAMP level: Fig 5c,e source data, Q150A
Description: as §1

turkey β1-AR Q237^5.68A = turkey β1-AR Q237^5.68A (Meleagris gallopavo, UniProt P07700, Q237A); details: for cAMP level: Fig 5c,e source data, Q237A
Description: as §1

turkey β1-AR S151^ICL2A = turkey β1-AR S151^ICL2A (Meleagris gallopavo, UniProt P07700, S151A); details: for cAMP, time course: S151ICL2A
Description: as §1

turkey β1-AR T291^6.36A = turkey β1-AR T291^6.36A (Meleagris gallopavo, UniProt P07700, T291A); details: for cAMP level: Fig 5c,e source data, T291A
Description: as §1

turkey β1-AR V230^5.61A = turkey β1-AR V230^5.61A (Meleagris gallopavo, UniProt P07700, V230A); details: for cAMP level: Fig 5c,e source data, V230A; for cAMP, time course: V2305.61A
Description: as §1

[1] = CHO, 5 min, read-out: Efficacy (% of max cAMP level)

Chain of turkey β1-AR Q237^5.68A (P07700 whole entry Q237A): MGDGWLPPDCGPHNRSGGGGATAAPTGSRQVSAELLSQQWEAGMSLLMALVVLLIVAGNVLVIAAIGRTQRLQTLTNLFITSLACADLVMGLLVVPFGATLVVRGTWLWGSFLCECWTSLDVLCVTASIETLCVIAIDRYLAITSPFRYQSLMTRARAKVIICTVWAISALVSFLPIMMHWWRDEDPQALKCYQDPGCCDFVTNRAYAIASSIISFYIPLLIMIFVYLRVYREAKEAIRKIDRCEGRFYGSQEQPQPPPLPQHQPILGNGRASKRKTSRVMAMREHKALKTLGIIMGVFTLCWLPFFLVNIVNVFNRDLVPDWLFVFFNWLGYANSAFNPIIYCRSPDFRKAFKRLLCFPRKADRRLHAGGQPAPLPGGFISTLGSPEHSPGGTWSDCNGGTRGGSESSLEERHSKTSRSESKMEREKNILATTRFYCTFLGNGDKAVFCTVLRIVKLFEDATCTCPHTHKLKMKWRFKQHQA
Chain of turkey β1-AR T291^6.36A (P07700 whole entry T291A): as the sequence (P07700 whole entry Q237A) above, with A237Q, T291A counted along it
Chain of turkey β1-AR F147^ICL2A (P07700 whole entry F147A): as the sequence (P07700 whole entry Q237A) above, with F147A, A237Q counted along it
Chain of turkey β1-AR Q150^ICL2A (P07700 whole entry Q150A): as the sequence (P07700 whole entry Q237A) above, with Q150A, A237Q counted along it
Chain of turkey β1-AR S151^ICL2A (P07700 whole entry S151A): as the sequence (P07700 whole entry Q237A) above, with S151A, A237Q counted along it
Chain of turkey β1-AR V230^5.61A (P07700 whole entry V230A): as the sequence (P07700 whole entry Q237A) above, with V230A, A237Q counted along it
Chain of turkey β1-AR P146^ICL2A (P07700 whole entry P146A): as the sequence (P07700 whole entry Q237A) above, with P146A, A237Q counted along it
Chain of turkey β1-AR E233^5.64A (P07700 whole entry E233A): as the sequence (P07700 whole entry Q237A) above, with E233A, A237Q counted along it

Work on `CC(CCc1ccc(O)cc1)NCCc1ccc(O)c(O)c1` (stereo not shown) [Dobutamine, dobutamine] yielded an EC50 (turkey β1-AR E233^5.64A) of 7.08 µM, an Emax (turkey β1-AR E233^5.64A; [1]) of 41 ± 3.7% and an EC50 (turkey β1-AR F147^ICL2A) of 11.5 µM. For the same compound, the Emax (turkey β1-AR F147^ICL2A; [1]) was 17 ± 0.2%, the cAMP level (turkey β1-AR F147^ICL2A; Fig 5c,e source data, F147A, log[ligand] (M) -9) was 32 and the EC50 (turkey β1-AR P146^ICL2A) was 4.07 µM. For the same compound, the Emax (turkey β1-AR P146^ICL2A; [1]) was 38 ± 2.4%, the EC50 (turkey β1-AR Q150^ICL2A) was 3.39 µM and the Emax (turkey β1-AR Q150^ICL2A; [1]) was 44 ± 3.5%. For the same compound, the cAMP level (turkey β1-AR Q150^ICL2A; log[ligand] (M) -3) was 192 and 204 and 207, the cAMP level (turkey β1-AR Q150^ICL2A; log[ligand] (M) -4) was 178 and 195 and 219 and the cAMP level (turkey β1-AR Q150^ICL2A; log[ligand] (M) -5) was 151 and 169 and 177. The cAMP level (turkey β1-AR Q150^ICL2A; log[ligand] (M) -6) was 58 and 69 and 73, the cAMP level (turkey β1-AR Q150^ICL2A; log[ligand] (M) -7) was 36 and 42 and 43 and the cAMP level (turkey β1-AR Q150^ICL2A; log[ligand] (M) -8) was 36 and 40. The cAMP level (turkey β1-AR Q150^ICL2A; log[ligand] (M) -9) was 35 and 37 and 41, the EC50 (turkey β1-AR Q237^5.68A) was 9.55 µM and the Emax (turkey β1-AR Q237^5.68A; [1]) was 21 ± 1.7%. The cAMP level (turkey β1-AR Q237^5.68A; log[ligand] (M) -3) was 103 and 114 and 116, the cAMP level (turkey β1-AR Q237^5.68A; log[ligand] (M) -4) was 97 and 112 and 118 and the cAMP level (turkey β1-AR Q237^5.68A; log[ligand] (M) -5) was 66 and 82 and 77. For the same compound, the cAMP level (turkey β1-AR Q237^5.68A; log[ligand] (M) -6) was 39 and 42, the cAMP level (turkey β1-AR Q237^5.68A; log[ligand] (M) -7) was 36 and 40 and 39 and the cAMP level (turkey β1-AR Q237^5.68A; log[ligand] (M) -8) was 34 and 39 and 40. The cAMP level (turkey β1-AR Q237^5.68A; log[ligand] (M) -9) was 32 and 37 and 40, the EC50 (turkey β1-AR S151^ICL2A) was 10.5 µM and the Emax (turkey β1-AR S151^ICL2A; [1]) was 38 ± 1.6%. For the same compound, the “cAMP, time course” value (turkey β1-AR S151^ICL2A; 0 min) was 33 and 34 and 31, the “cAMP, time course” value (turkey β1-AR S151^ICL2A; 0.5 min) was 39 and 36 and 32 and the “cAMP, time course” value (turkey β1-AR S151^ICL2A; 1 min) was 38 and 36. For the same compound, the “cAMP, time course” value (turkey β1-AR S151^ICL2A; 2 min) was 41 and 45 and 47, the “cAMP, time course” value (turkey β1-AR S151^ICL2A; 5 min) was 104 and 103 and the “cAMP, time course” value (turkey β1-AR S151^ICL2A; 10 min) was 98 and 96 and 94. For the same compound, the “cAMP, time course” value (turkey β1-AR S151^ICL2A; 15 min) was 58 and 63 and 55, the “cAMP, time course” value (turkey β1-AR S151^ICL2A; 20 min) was 48 and 49 and 46 and the “cAMP, time course” value (turkey β1-AR S151^ICL2A; 25 min) was 44 and 46 and 42. The “cAMP, time course” value (turkey β1-AR S151^ICL2A; 30 min) was 42 and 49 and 46, the EC50 (turkey β1-AR T291^6.36A) was 6.61 µM and the Emax (turkey β1-AR T291^6.36A; [1]) was 21 ± 1.7%. For the same compound, the cAMP level (turkey β1-AR T291^6.36A; log[ligand] (M) -3) was 106 and 116 and 114, the cAMP level (turkey β1-AR T291^6.36A; log[ligand] (M) -4) was 100 and 115 and 113 and the cAMP level (turkey β1-AR T291^6.36A; log[ligand] (M) -5) was 82 and 86 and 83. For the same compound, the cAMP level (turkey β1-AR T291^6.36A; log[ligand] (M) -6) was 40 and 42 and 41, the cAMP level (turkey β1-AR T291^6.36A; log[ligand] (M) -7) was 38 and 39 and the cAMP level (turkey β1-AR T291^6.36A; log[ligand] (M) -8) was 34 and 39. For the same compound, the cAMP level (turkey β1-AR T291^6.36A; log[ligand] (M) -9) was 34 and 36 and 38, the EC50 (turkey β1-AR V230^5.61A) was 6.17 µM and the Emax (turkey β1-AR V230^5.61A; [1]) was 36 ± 1.1%. For the same compound, the cAMP level (turkey β1-AR V230^5.61A; log[ligand] (M) -3) was 167 and 175 and 168, the cAMP level (turkey β1-AR V230^5.61A; log[ligand] (M) -4) was 164 and 173 and 169 and the cAMP level (turkey β1-AR V230^5.61A; log[ligand] (M) -5) was 121 and 131 and 129. The cAMP level (turkey β1-AR V230^5.61A; log[ligand] (M) -6) was 39 and 44 and 43, the cAMP level (turkey β1-AR V230^5.61A; log[ligand] (M) -7) was 36 and 40 and 38 and the cAMP level (turkey β1-AR V230^5.61A; log[ligand] (M) -8) was 35 and 37. The cAMP level (turkey β1-AR V230^5.61A; log[ligand] (M) -9) was 32 and 37 and 36, the “cAMP, time course” value (turkey β1-AR V230^5.61A; 0 min) was 30 and 28 and 33 and the “cAMP, time course” value (turkey β1-AR V230^5.61A; 0.5 min) was 32 and 35 and 38. The “cAMP, time course” value (turkey β1-AR V230^5.61A; 1 min) was 34 and 37 and 35.
